Measurements as given in article PMC6120666 (The EMBO Journal, 2018).

Legend:
[1] = target: T1, NanoLuc-RIPK2 WT and T95W (Homo sapiens, UniProt O43353, T95W); assay: nanoBRET assay in HEK293 cells with SGC-590001 probe; assay type: binding; settings: up to more than 100 nM
T1 construct: expressed in transfected cells; host or cells: HEK293 cells
Procedure: Purified material and lysates were analyzed by immunoblotting. […] Two‐way ANOVA was used to determine statistical significance.
(§1) GST-BIR2-XIAP as indicated. Intensity quantification of SPOTs was performed using ImageJ software
(§2) Dual luciferase reporter assay
(§3) Intracellular flow cytometry of CXCL8
(§4) for cell death) or vehicle for 24h. Viability was determined using the CellTiter-Glo® luminescent cell
(§5) together with Transfection Carrier DNA (Promega).
(§6) After addition of Nano-Glo

[2] = target: T2, XIAP-RIPK2 interaction in HEK293FT cells (Homo sapiens, UniProt O43353); assay: Co-immunoprecipitation of HA-XIAP with endogenous RIPK2; assay type: cell-based; settings: 200 nM
T2 construct: endogenous RIPK2 from HEK293FT cells; endogenous in cells; host or cells: HEK293FT cells (RIPK2 endogenous; 3xHA-XIAP-F495A transfected)
Procedure: Purified material and lysates were analyzed by immunoblotting. • Pulldown of RIPK2 from U2OS/NOD2 cell lysates with recombinant GST‐BIR2‐XIAP in the presence of CSLP inhibitors. […] Purified material and lysates were analyzed by immunoblotting. • Pulldown of recombinant RIPK2 kinase domain (dephosphorylated) with recombinant GST‐BIR2‐XIAP in the presence of CSLP inhibitors as indicated. Inhibitors were used at the same concentrations as in (C). Purified material and lysates were analyzed by immunoblotting. • Purification of Ub‐conjugates from THP‐1 cells after treatment with L18‐MDP (200 ng/ml, 1 h) and CSLP inhibitors as indicated. Purified material and lysates were analyzed by immunoblotting. […]
For co‐immunoprecipitation of HA‐XIAP with RIPK2, transfected and treated cells were lysed in TBS buffer containing 0.5% NP‐40, cOmplete and PhosSTOP inhibitors (Roche) and the lysate was cleared by centrifugation. The lysates were incubated with anti‐HA‐agarose overnight, washed 3× with lysis buffer, and analyzed by immunoblotting. […] Bound material was washed 3× with lysis buffer or PBS, eluted with 15 mM Glutathione in PBS, and analyzed by immunoblotting. […] The bound material was eluted and analyzed as described above. […]
(§7) Ubiquitin conjugates were purified from treated cells using GST-1xUBAubq ubiquitin affinity reagent and analyzed by immunoblotting as described (Fiil et al., 2013). […]

[3] = target: T3, XIAP BIR2 - RIPK2 interaction (Homo sapiens, UniProt O43353); assay: GST-BIR2-XIAP pulldown of RIPK2; assay type: binding; settings: U2OS/NOD2 lysates; inhibitors at 100-fold IC50 of RIPK2 kinase activity
T3 construct: U2OS/NOD2 cells were lysed in TBS lysis buffer; endogenous in cells; host or cells: U2OS/NOD2 cell lysate (RIPK2); E. coli BL21 (GST-BIR2-XIAP)
Procedure: (§8) For co‐immunoprecipitation of HA‐XIAP with RIPK2, transfected and treated cells were lysed in TBS buffer containing 0.5% NP‐40, cOmplete and PhosSTOP inhibitors (Roche) and the lysate was cleared by centrifugation. The lysates were incubated with anti‐HA‐agarose overnight, washed 3× with lysis buffer, and analyzed by immunoblotting. For GST pulldown experiments, U2OS/NOD2 cells were lysed in TBS lysis buffer containing 0.5% NP‐40, cOmplete and PhosSTOP inhibitors (Roche). Cleared lysates were pretreated with kinase inhibitors or DMSO and incubated with GST‐XIAP‐BIR2 bound to Glutathione Sepharose at 4°C overnight. Bound material was washed 3× with lysis buffer or PBS, eluted with 15 mM Glutathione in PBS, and analyzed by immunoblotting. […] The bound material was eluted and analyzed as described above.
For coimmunoprecipitation of HA-XIAP with RIPK2, transfected and treated cells were lysed in TBS buffer containing 0.5% NP-40, cOmplete and PhosSTOP inhibitors (Roche) and the lysate was cleared by centrifugation. The lysates were incubated with anti-HA-agarose overnight, washed 3x with lysis buffer and analyzed by immunoblotting. For GST pull-down experiments, U2OS/NOD2 were lysed in TBS lysis buffer containing 0.5% NP-40, cOmplete and PhosSTOP inhibitors (Roche).
Cleared lysates were pretreated with kinase inhibitors or DMSO and incubated with GST-XIAP-BIR2 bound to Glutathione Sepharose at 4 °C overnight. Bound material was washed 3x with lysis buffer or PBS, eluted with 15 mM Glutathione in PBS and analyzed by immunoblotting. In pull-down […]
inhibitors or DMSO control in PBS were added together with RIPK2 kinase domain to GST-XIAP-BIR2 bound to Glutathione Sepharose. The bound material was eluted and analyzed as described above. […]

[4] = tested on: RIPK2 ubiquitination in U2OS/NOD2 and THP-1 cells; assay: Purification of Ub-conjugates (TUBE pulldown), RIPK2 ubiquitination; assay type: cell-based, human
Procedure: as §8, with “above. […]” for “above.”
PBS, eluted with 15 mM Glutathione in PBS and analyzed by immunoblotting. […]

U2OS/NOD2 cells = assay: Intracellular flow cytometry of CXCL8 after L18-MDP; assay type: cell-based, human; settings: U2OS/NOD2 RIPK2 KO cells reconstituted with T95W gatekeeper mutant; L18-MDP 200 ng/ml, 4 h
Procedure: Purified material and lysates were analyzed by immunoblotting. […] Numbering below schematic refers to amino acid residues in human RIPK2 and indicate domain boundaries. […] Data information: Data in (A, B, D, H) represent the mean ± SEM of 2–4 independent experiments, each performed in duplicate. […] Two‐way ANOVA was used to determine statistical significance. See also Fig EV1.Source data are available online for this figure.
Dark gray represents areas occupied by RIPK2; white areas indicate empty spaces in CSLP binding pocket. […] Dotted black box indicates region shown for models with CSLP37 and CSLP43. • Molecular docking model of RIPK2 kinase domain in complex with CSLP43 (green) based on RIPK2/CSLP18 structure from (D). […] Two‐way ANOVA was used to determine statistical significance. See also Fig EV2.
as §1, §2, §3, §4, §5, §6

GST-BIR2-XIAP [5] = target: T4, GST-BIR2-XIAP (Homo sapiens, UniProt P98170); assay: SPOT peptide assay; assay type: binding; settings: GST-tagged WT BIR2
T4 construct: XIAP BIR2 domain (aa 124-242) into pGTVL2 vector in frame with N-terminal HIS and GST tags; made in house; host or cells: E. coli (BL21)
Procedure: (§9) Cellulose‐bound peptide arrays were prepared employing standard Fmoc solid‐phase peptide synthesis using a MultiPep‐RSi‐Spotter (INTAVIS, Köln, Germany) as previously described (Picaud & Filippakopoulos, 2015). The assay was performed using recombinant 6xHIS‐GST‐BIR2 domain of XIAP protein, and bound protein was detected using anti‐His antibody HRP‐conjugated.
(§10) For coimmunoprecipitation of HA-XIAP with RIPK2, transfected and treated cells were lysed in TBS buffer containing 0.5% NP-40, cOmplete and PhosSTOP inhibitors (Roche) and the lysate was cleared by centrifugation. The lysates were incubated with anti-HA-agarose overnight, washed 3x with lysis buffer and analyzed by immunoblotting. […]
(§11) Cleared lysates were pretreated with kinase inhibitors or DMSO and incubated with GST-XIAP-BIR2 bound to Glutathione Sepharose at 4 °C overnight. Bound material was washed 3x with lysis buffer or PBS, eluted with 15 mM Glutathione in PBS and analyzed by immunoblotting. […] The bound material was eluted and analyzed as described above.
as §7
(§12) Proteins bound to peptides were detected using anti-His antibody HPR conjugated (diluted 1:15000) and the Pierce® ECL Western blotting Substrate (#32106, Thermo Fisher Scientific). […]

GST-BIR2-XIAP [6] = target: T5, GST-BIR2-XIAP (Homo sapiens, UniProt P98170, D214S); assay: SPOT peptide assay; assay type: binding; settings: D214S mutant BIR2
T5 construct: XIAP BIR2 domain (aa 124-242) into pGTVL2 vector in frame with N-terminal HIS and GST tags; made in house; host or cells: E. coli (BL21)
Procedure: as §9, §10, §11, §7, §12

## Cc1ccc(C(=O)Nc2ccc(CN3CCN(C)CC3)c(C(F)(F)F)c2)cc1C#Cc1cnc2cccnn12 [ponatinib, reference compound]
[1]
  binding to RIPK2 T95W in cells: ablated the binding
[2]
  co-immunoprecipitation of endogenous RIPK2 with HA-XIAP: prevented
[3]
  pulldown of RIPK2 by GST-BIR2-XIAP from cell lysates: interfered
[4]; U2OS/NOD2 RIPK2 KO cells reconstituted with K47R or D146N
  ubiquitination of kinase-dead RIPK2 variants after NOD2 stimulation: prevented ubiquitination
[4]; U2OS/NOD2 or THP-1 cells, L18-MDP 200 ng/ml, 1 h
  RIPK2 ubiquitination after L18-MDP: antagonized
U2OS/NOD2 cells
  inhibition of NOD2 signaling (CXCL8) in cells expressing RIPK2 T95W: largely abolished the inhibitory effect

## A-S-G-T-V-S-S-A-R-H-A-D-W-R-V (ASGTVSSARHADWRV) [A13, RIPK2 15-mer SPOT peptide, residues 28-42]
GST-BIR2-XIAP [5]
  binding of WT XIAP BIR2 domain to peptide: binds predominantly
GST-BIR2-XIAP [6]
  binding of D214S versus WT BIR2 domain to peptide: reduced
